Experimental data taken from EP1379634B1 (THE UNIVERSITY OF GEORGIA RESEARCH FOUNDATION, INC., priority 2001, dated 2002).
Residues, ends and D or L forms follow the SMILES beside them. *: point of attachment. AFC = O=c1cc(C(F)(F)F)c2ccc(N*)cc2o1; Cbz = O=C(OCc1ccccc1)*; CH2F = FC*

Legend:
Taenia solium crude mix = experiment: Substrate cleavage screen of AFC-linked peptides (Step II), crude mix; type: biochemical; conditions: 0.4 M Citrate, pH 4.9, 18 h, 37 °C
Description: (§1) In this step, the most efficacious substrate for detection of the cysteine protease (high Kcat substrate) was determined in vitro along with those substrates which were not well cleaved (low kcat substrates). From this point forward, the following conditions refer to all assays: "assay buffer" refers to 0.4 M Citrate, pH 4.9 (the pH optima of the protease). Incubation time was 18 hours at 37°C. These conditions were determined by our preliminary data to be best for kinetic evaluation of the protease. […] The experiments were conducted in 6X50 […] Borosilicate mini-culture tubes (Fisher Scientific), and a fluorometer (Turner) was employed for detection of AFC cleavage.
In order to prepare the Taenia solium "crude mix", dry frozen Taenia solium cysts were obtained from 6-12 month old cysticercotic pigs from villages in an endemic area of porcine cysticercosis in Mexico. Metacestodes were carefully dissected from the parasitized tissues, washed three times with PBS, and lyophilized. Parasite extracts were prepared by suspending 0.1 grams of dry frozen cysts in 10 ml of extraction buffer (0.4 M citrate, pH 4.9) at room temperature. The cysts were vortexed for three five-minute intervals with intermittent incubations (5 min) at 4 °C. Particulate material was removed by centrifugation (20,000 x g, 120 min) and the resulting soluble fraction filtered ([…]). In assay buffers, the detectable amount of the crude mix, as described above, was employed and incubated with the target substrates.
(§2) Vmax for the cleavage of substrates by the purified target protease and Vmax for substrates cleaved by the crude mix protease were each calculated using conventional kinetic modeling calculations already described in the art.

[1] = tested on: purified Taenia solium cysteine protease; experiment: Protease inactivator inhibition assay against cocktail, EC100 and Ki (Step VII); type: biochemical; conditions: for ranking by EC100: dilution study, nanomolar levels; for % Inhibition of T. solium CP in vitro: concentration not stated in Table 4
From the text: Once the protease inactivators were synthesized in the organic laboratory, they were to be tested for the lowest efficacious concentrations at which they induced 100% inhibition of the target protease (EC100). The top percent cocktail that was employed in the final vehicle selection step of Step III was employed as the source of competition for the inhibitors. In this case, this was the 7.9% cocktail that was comprised of Z-FR-AFC, Z-FAR-AFC, Z-AP-AFC, Z-AAK-AFC, and Z-VLR-AFC. The final result would be a ranking of transition state candidate protease inactivators with a high ranking directly correlating to a low EC100 value. The following steps describe the assay: • Step A: Initial Screening. To set up the test control, each protease inactivator was first incubated with the 5% cocktail (which provided the final differentiation of vehicles in Step III). To begin with, the protease inactivator was incubated at a concentration of 3 X 10^-9M in 500 ul of assay buffer (0.2 M Citrate, pH 4.9, supplemented with 10mM L-cysteine). This concentration was determined by a series of inhibitor dilutions to be the best inhibitor concentration at which a differentiation in inhibitor potential could be noted. Next, a concentration equal to 4 X 10^-5M for each of the individual cocktail components, was added to the mix. The components were allowed to equilibrate for a period of 30 minutes. Finally, active purified enzyme was added to the tubes at a concentration which was always at least 50 times less than the concentration of the lowest concentration in the mix (so as to provide saturating conditions.) This concentration varied from purification to purification, and the amount that was added depended upon the yield and specific activity of the purified protease. Positive controls were set up similarly as described for test controls, except that solvent was added in substitution for the protease inactivator (in a volume equal to the […] volume addition). All of the protease inactivators could be dissolved in dimethylsulfoxide (DMSO), and therefore, this was the solvent of choice. Negative controls were set up by adding the protease inactivator and the cocktail substrates in a tube, without the protease. All potential non-proteolytic induced liberation of AFC was therefore controlled for in this tube. All controls were set up in triplicate, and experiments repeated a minimum of five times. The assays were incubated at 37°C, overnight. Percent inhibition was calculated as: %Inhibition = ((AFC positive for "SI"−AFC negative for "SI")−(AFC test−AFC negative for "SI"))/(AFC positive for "SI"−AFC negative for "SI") × 100 [formula] • Step B: Inhibitor Dilution Studies and formation of a ranked list of protease inactivators based upon EC100 values. […] Because of this, a dilution study was required in order to determine a viable ranking. Thus, the concentration of each of the protease inactivators was lowered with a dose response setup until the most efficacious concentration for 100% inhibition (EC100) could be determined. The inhibitors had to be diluted to nanomolar levels in order to establish a differentiable EC100 pattern. The final result of the assay was a ranked candidate list of protease inactivators. A lower EC100 was attributable to a higher ranking and vice-versa. • Step C: Determination of Inhibitor Ki and mode of inhibition, and re-ranking of EC100 list with inhibitor Ki. Ki of each of the top ranked protease inactivators, based upon low EC100 values, was assessed next for the top 5 EC100 inhibitors.
In order to determine Ki, all of the high Vmax cocktail substrates were employed for Ki determination (since Ki of the inhibitor for the enzyme is the same regardless of the substrate). To insure the highest accuracy, Ki was to be determined upon a minimum of at least three of the high Kcat substrates. Nonlinear fitting and the Dixon plot were both employed to determine Ki of the top ranked protease inactivators. […]

[2] = tested on: purified Taenia solium cysteine protease; experiment: Substrate cleavage screen of AFC-linked peptides (Step II), purified protease; type: biochemical; conditions: 0.4 M Citrate, pH 4.9, 0.01 M cysteine, 18 h, 37 °C
Description: as §1
Since the full 8,420 amino acid possibilities for cleavage were not available, representative substrates were employed. […] In order to choose this subset, representative amino acids (i.e., selected from the categories of acidic, basic, nonpolar, uncharged) were chosen so as to create as many categories of motifs as feasible for the P3-P1 positions with a set of 67 small peptides (see lists at Fig. 4a and Fig. 4b). The target cysteine protease from Taenia solium was isolated using the purification methods described previously in the patent WO 00/63350.
Approximately 1 ug (or a proteolytically detectable amount) of the purified target cysteine protease was incubated individually, with 1 ug of each of the available substrates in 500 uL of assay buffer. During this setup, the substrate was pre-incubated in the assay buffer for a short period of time (20 minutes) in order to reach an equilibrated status before the addition of the protease. Cleavage assessments were based upon the property of the protease to cleave synthetic peptide substrates linked at the C-terminus to 7-Amino-4-Trifluoromethyl Coumarin (AFC) as previously described. AFC linked tripeptides, dipeptides, and monopeptides, (with a variety of permutations at P3-P1) were available from Enzyme Systems Products (Livermore, CA), and were used as the source of the subset. Following incubation of enzyme preparations overnight (18 h, 37 °C) with peptide in assay buffer (Citrate, pH 4.9, supplemented with 0.01 M cysteine), free AFC concentrations were measured fluorometrically (excitation 405 nm, emission 505 nm). The proteolytic cleavage released the AFC group, which was measurable as a free molecule by a standard fluorometer and converted into molar quantities, based upon a previously established standard curve. The simplicity of AFC detection by the fluorometer was a key factor which expedited and simplified the procedures.
In the assay, 1 ug of the purified Taenia cysteine protease was added to a saturating amount of Z-Phe-Arg-AFC (4X10^-5 M) in assay buffer. The experiment was conducted in triplicate and repeated at least 5 times until we were certain that variability in AFC cleavage was not statistically significant.
as §2

Taenia crassiceps cysts = experiment: Short-term protection of BALB/c mice from cysticercosis infection; type: in vivo
BALB/c mice = experiment: Observation of side effects in treated mice; type: in vivo
Cathepsin L = Cathepsin L (Homo sapiens, UniProt P07711); experiment: Selectivity test (Steps VI and IX), Cathepsin L; type: biochemical; conditions: inhibitor 3 X 10^-10 M; pH 5.5, substrate Z-FR-AFC; 0.0003 µM
Description: (§3) In order to perform the assay, the vehicle (for Step VI) or inhibitor (for Step IX) were incubated with the appropriate substrate in the correct assay buffer and allowed to equilibrate. Subsequently, the protease was added, and the assay was allowed to incubate for an appropriate time. The concentrations used in this experiment were as follows: Vehicle was set up at 4 X 10^-5 M in final assay buffer; Inhibitor was set up at 3 X 10^-10 M in the final assay buffer. Preferably the dosages employed should be the minimal amount of vehicle or inhibitor necessary to induce inhibition. […] Substrates were set up based upon the preferred substrate for cleavage of the particular enzyme.
(§4) Positive controls were set up similarly as described for test controls, except that a solvent blank was added in substitution for the inhibitor or vehicle (in a volume equal to the volume of inhibitor or vehicle addition). All of the inhibitors and vehicles could be dissolved in dimethylsulfoxide (DMSO), and therefore, this was the solvent of choice. Negative controls were set up by adding the inhibitor or vehicle and the preferred substrates in a tube without the protease. All potential non-proteolytic liberation of AFC was therefore controlled for in this tube.
(§5) All controls were set up in triplicate, and experiments were repeated a minimum of five times.
(§6) Percent inhibition was calculated as: %Inhibition = ((AFC positive for "SI"−AFC negative for "SI")−(AFC test−AFC negative for "SI"))/(AFC positive for "SI"−AFC negative for "SI") × 100 [formula]
(§7) In this preliminary test, we employed the following human-derived enzymes (with indicated mechanistic class in parentheses): Cathepsin B (cysteine), Cathepsin L (cysteine), Cathepsin H (cysteine), Cathepsin D (aspartic), Trypsin (serine), the purified Taenia solium cysteine protease, and the Taenia solium crude mix. Cathepsin B was prepared in an assay buffer of 10 mM L-cysteine in 0.4 M Citrate buffer, pH 6.1, using Z-ARR-AFC as the cleavage substrate. Cathepsin L was prepared in an assay buffer of 10 mM L-cysteine in 0.4 M Citrate buffer, pH 5.5, using Z-FR-AFC as the cleavage substrate. Cathepsin H was prepared in an assay buffer of 10 mM L-cysteine in 0.15 M PBS buffer, pH 6.8, using L-R-AFC as the cleavage substrate. Cathepsin D was prepared in an assay buffer of 0.15 M PBS, pH 7.1, using Z-RGFFP-AFC as the cleavage substrate. Trypsin was prepared in an assay buffer of 0.15 M PBS, pH 8.0, supplemented with 100 mM CaCl2 and with Z-R-AFC as the cleavage substrate. Enzyme was incubated so that it was at least 50 times less than the concentration of substrate in order to insure saturating conditions.

[3] = tested on: normal BALB/c mouse splenocytes; experiment: Splenocyte proliferation (3H-thymidine incorporation) with or without Con-A; type: cell-based
T. solium (cysteine) = experiment: Selectivity test (Steps VI and IX), T. solium cysteine protease; type: biochemical, Taenia solium; conditions: inhibitor 3 X 10^-10 M
Description: as §3, §4, §5, §6, §7

Trypsin = experiment: Selectivity test (Steps VI and IX), Trypsin; type: biochemical, human; conditions: inhibitor 3 X 10^-10 M; pH 8.0, substrate Z-R-AFC; 0.0003 µM
Description: as §3, §4, §5, §6, §7

Cathepsin L, sequence (P07711 114-333): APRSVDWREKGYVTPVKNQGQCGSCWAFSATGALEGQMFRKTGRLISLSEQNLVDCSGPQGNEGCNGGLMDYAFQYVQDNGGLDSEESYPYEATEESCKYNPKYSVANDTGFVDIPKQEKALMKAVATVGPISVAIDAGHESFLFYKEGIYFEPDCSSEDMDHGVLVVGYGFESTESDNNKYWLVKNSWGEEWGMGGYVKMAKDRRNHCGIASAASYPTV

CC(C)C[C@H](NC(=O)[C@@H](NC(=O)OCc1ccccc1)C(C)C)C(=O)N[C@@H](CCCNC(=N)N)C(=O)Nc1ccc2c(C(F)(F)F)cc(=O)oc2c1 [Z-VLR-AFC] (Cbz-Val-Leu-Arg-{AFC})
cleavage of AFC substrate (Vmax) (Taenia solium crude mix): most cleaved

CC(C)C[C@@H](/C=C/S(C)(=O)=O)NC(=O)[C@H](CC(C)C)NC(=O)[C@H](CC(C)C)NC(=O)OCc1ccccc1 [Z-LLL-VS, Z-Leu-Leu-Leu-vinylsulfone]
ranking by EC100 [1]: top inhibitors

C[C@H](NC(=O)OCc1ccccc1)C(=O)N[C@@H](C)C(=O)N[C@@H](CCCCN)C(=O)Nc1ccc2c(C(F)(F)F)cc(=O)oc2c1 [Z-AAK-AFC] (Cbz-Ala-Ala-Lys-{AFC})
cleavage of AFC substrate (Vmax) (Taenia solium crude mix): most cleaved

N=C(N)NCCC[C@H](NC(=O)[C@H](Cc1ccccc1)NC(=O)OCc1ccccc1)C(=O)Nc1ccc2c(C(F)(F)F)cc(=O)oc2c1 [Z-FR-AFC, Z-Phe-Arg-AFC, reference compound] (Cbz-Phe-Arg-{AFC})
cleavage of AFC substrate (Vmax) (Taenia solium crude mix): most cleaved | cleavage of AFC substrate (Vmax) [2]: cleaved | cleavage of AFC substrate (Vmax) ([2]; listed as Z-Phe-Arg-AFC): highest Vmax

Leu-Phe-Ketoamide-Pyridyl [K-Pyr, reference compound]
% Prophylactic protection of BALB/c mice (Taenia crassiceps cysts; pre-injected two days, 10 T. crassiceps cysts/mouse, dosed daily four weeks, cysts counted after one month): 40% | % Inhibition of T. solium CP in vitro [1]: 80%

C[C@H](N)C(=O)N1CCC[C@H]1C(=O)Nc1ccc2c(C(F)(F)F)cc(=O)oc2c1 [AP-AFC] (H-Ala-Pro-{AFC})
cleavage of AFC substrate (Vmax) (Taenia solium crude mix): most cleaved

CC(C)C[C@H](NC(=O)[C@H](CC(C)C)NC(=O)[C@H](CC(C)C)NC(=O)OCc1ccccc1)C(=O)CF [Z-LLL-FMK, Z-Leu-Leu-Leu-fluoromethylketone] (Cbz-Leu-Leu-Leu-CH2F)
side effects in treated animals (BALB/c mice; long or short-term period): only negligible side effects | side effects in treated mice (BALB/c mice; long-term studies): no side effects | % Therapeutic protection of BALB/c mice (Taenia crassiceps cysts; inhibitor treatment began two weeks after infection): 60% | % inhibition (Cathepsin L): almost half of the inhibition of the Taenia solium cysteine protease | proliferative response (3H-thymidine incorporation) ([3]; inhibitor alone): do not induce a proliferative response | toxicity to splenocytes in vitro ([3]; preliminary results): nontoxic | % inhibition (T. solium (cysteine)): 98% | % Inhibition of T. solium CP in vitro [1]: 100% | ranking by EC100 [1]: top inhibitors | % inhibition (Trypsin): 0%

C[C@H](NC(=O)[C@H](Cc1ccccc1)NC(=O)OCc1ccccc1)C(=O)N[C@@H](CCCNC(=N)N)C(=O)Nc1ccc2c(C(F)(F)F)cc(=O)oc2c1 [Z-FAR-AFC] (Cbz-Phe-Ala-Arg-{AFC})
cleavage of AFC substrate (Vmax) (Taenia solium crude mix): most cleaved
